Source: patent US20090069271A1, “WOOD TREATMENT” (priority 2005, published 2009)
Read-outs that look alike come from different tables or passages of the source.

What was measured:
[1] = aqueous dioxane, tri-(dicyclohexylcarbinyl) borate = 1, cited from earlier work
[2] = base catalysed hydrolysis, 60% aqueous dioxane at 21°; cited from earlier work
[3] = Pseudo three-dimensional hydrolysis test, sample layered on distilled water; type: physicochemical; conditions: sample layered on distilled water in a test tube; 20 mls sample layered on 10 mls distilled water in 19 mm test tube
Description: A pseudo three-dimensional test was made by taking 10 mls of distilled water and placing in a 19 mm diameter test tube. 20 mls of sample was then layered on the water; the rate of hydrolysis was then measured. This was done by taking 2 ml samples from the test tube over time, refluxing and titrating the 2 ml samples to get the concentration. The test was with n-butyl di-n-propyl borate, which should have similar kinetic properties to tri-n-propyl borate and tri-n-butyl borate. The test was also done with tri-n-octyl borate.
It can be seen that there is an exponential difference in the half-life when changing the conditions of hydrolysis. For the commercial method of which the patent covers, the hydrolysis rate is slow enough to give consistent uptake of product in the timber and provide stable solution concentration.

Compound	Relative rate of hydrolysis [1]	also measured
c1ccc([C@H]2CCCC[C@H]2OB(O[C@@H]2CCCC[C@@H]2c2ccccc2)O[C@@H]2CCCC[C@@H]2c2ccccc2)cc1 (relative stereo) [Tri-(cis-2-phenylcyclohexyl) borate]	28.2	–
c1ccc([C@@H]2CCCC[C@H]2OB(O[C@@H]2CCCC[C@H]2c2ccccc2)O[C@@H]2CCCC[C@H]2c2ccccc2)cc1 (relative stereo) [Tri-(trans-2-phenylcylohexyl) borate]	40.0	–
CCCCCCC(C)OB(OC(C)CCCCCC)OC(C)CCCCCC (centres unmarked) [Tri-2-octyl borate]	4.33 × 10^3	–
CCCCC(CC)OB(OC(CC)CCCC)OC(CC)CCCC (centres unmarked) [Tri-3-heptyl borate]	415	–
CCC(CC)OB(OC(CC)CC)OC(CC)CC [Tri-3-pentyl borate]	483	–
C#CC1(OB(OC2(C#C)CCCCC2)OC2(C#C)CCCCC2)CCCCC1 [Tri-(1-ethynylcyclohexyl) borate]	4.29 × 10^4	–
CC(C)CC(C)CC(CC(C)C)OB(OC(CC(C)C)CC(C)CC(C)C)OC(CC(C)C)CC(C)CC(C)C (centres unmarked) [Tri-(2,6,8-trimethyl-4-nonyl) borate]	4.83	–
C1CCC(OB(OC2CCCCC2)OC2CCCCC2)CC1 [Tri-(2-cyclohexyl) borate]	3.67	–
CCCCC(CC)COB(OCC(CC)CCCC)OCC(CC)CCCC (centres unmarked) [Tri-(2-ethylhexyl) borate]	2.77 × 10^3	–
c1ccc(C2CCCCC2OB(OC2CCCCC2c2ccccc2)OC2CCCCC2c2ccccc2)cc1 (centres unmarked) [Tri-(2-phenylcyclohexyl) borate]	34.1	–
C1CCC(C(OB(OC(C2CCCCC2)C2CCCCC2)OC(C2CCCCC2)C2CCCCC2)C2CCCCC2)CC1 [Tri-(dicyclohexylcarbinyl) borate]	1	–
CC(C)CC(CC(C)C)OB(OC(CC(C)C)CC(C)C)OC(CC(C)C)CC(C)C [Tri-(diisobutylcarbinyl) borate]	5.86	–
CC(C)CC(C)OB(OC(C)CC(C)C)OC(C)CC(C)C (centres unmarked) [Tri-(methylisobutylcarbinyl) borate]	2430	–
CCCC1OB(OCC(CC)C(CCC)OB2OCC(CC)C(CCC)O2)OCC1CC (centres unmarked) [Tri-(octylene glycol) biborate]	3.92 × 10^5	–
CCCCCCOB(OCCCCCC)OCCCCCC [Tri-hexyl borate]	2.02 × 10^5	Half-life [2]: 2.9 s
CCCCCOB(OCCCCC)OCCCCC [Tri-n-amyl borate]	5.87 × 10^5	Half-life [2]: 1.0 s
CCCCOB(OCCCC)OCCCC [Tri-n-butyl borate]	–	Half-life [3]: 89 h; Half-life(sec.) [2]: Too fast to measure
CCCCCCCCCCCCOB(OCCCCCCCCCCCC)OCCCCCCCCCCCC [Tri-n-dodecyl borate]	2.77 × 10^4	Relative rate of hydrolysis ([1]; listed as Tri-dodecyl borate): 2.77×10^4; Half-life [2]: 21.3 s
CCCCCCCCOB(OCCCCCCCC)OCCCCCCCC [Tri-n-octyl borate]	3.67 × 10^4	Half-life [2]: 16.0 s
CCCOB(OCCC)OCCC [Tri-n-propyl borate]	–	Half-life(sec.) [2]: Too fast to measure
CCC(C)OB(OC(C)CC)OC(C)CC (centres unmarked) [Tri-s-butyl borate]	1.68 × 10^5	–
CCC(C)(C)OB(OC(C)(C)CC)OC(C)(C)CC [Tri-t-amyl borate]	449	–
CC(C)(C)OB(OC(C)(C)C)OC(C)(C)C [Tri-t-butyl borate]	1370	–
CCOB(OCC)OCC [Triethyl borate]	–	Half-life(sec.) [2]: Too fast to measure
COB(OC)OC [Trimethyl borate]	–	Half-life(sec.) [2]: Too fast to measure
CCCCCCCC/C=C\CCCCCCCCOB(OCCCCCCCC/C=C\CCCCCCCC)OCCCCCCCC/C=C\CCCCCCCC [Trioleyl borate]	3.57 × 10^4	–
CCCCCCCCCCCCCCCCCCOB(OCCCCCCCCCCCCCCCCCC)OCCCCCCCCCCCCCCCCCC [Tristearyl borate]	2.71 × 10^4	Half-life [2]: 21.7 s
CCCCOB(OCCC)OCCC [n-butyl di-n-propyl borate]	–	Half-life [3]: 6.5 h
